What was measured:
DNA = test: Displacement of ethidium bromide from calf thymus DNA assessed as ratio of concentration of ethidium in ethidium DNA complex to drug concentration by fluorometric assay; format: nucleic-acid assay; conditions: Bos taurus
HT-29 = test: Cytotoxicity against human HT-29 cells after 144 hrs; format: functional, cell-based; conditions: HT-29, 144 h

Compound	Kapp (DNA)	IC50 (HT-29)
CN(C)CCNc1ccc2c3c(cccc13)C(=O)N(CCCN(C)CCCN1C(=O)c3cccc4c(NCCN(C)C)ccc(c34)C1=O)C2=O	2.3 ×10⁸ /M	60 nM
CN(C)CCN1C(=O)c2cccc3cc([N+](=O)[O-])cc(c23)C1=O [MITONAFIDE]	3.4 ×10⁶ /M	220 nM
CN(C)CCNc1c(N)cc2c3c(cccc13)C(=O)N(CCN(C)C)C2=O	4.5 ×10⁷ /M	810 nM
CN(C)CCNC(=O)c1ccc(NCCN(C)C)c2c(=O)c3ccccc3[nH]c12		44 nM
CN(C)CCNC(=O)c1cccc2c(=O)c3ccccc3[nH]c12		1700 nM
NCCNc1c([N+](=O)[O-])cc2c3c(cccc13)C(=O)N(CCN)C2=O	5.3 ×10⁷ /M	860 nM
CN(C)CCN1C(=O)c2cccc3c(NCCNCCO)ccc(c23)C1=O	2.4 ×10⁷ /M	770 nM
CN(C)CCNc1c([N+](=O)[O-])cc2c3c(cccc13)C(=O)N(CCN(C)C)C2=O	7.7 ×10⁷ /M	120 nM
CN(C)CCCNc1ccc2c3c(cccc13)C(=O)N(CCCN(C)CCCN1C(=O)c3cccc4c(NCCCN(C)C)ccc(c34)C1=O)C2=O	1.1 ×10⁸ /M	100 nM

Further lines, with some results ahead:

Kapp (DNA)	Compound	IC50 (HT-29)
3.9 ×10⁷ /M	CN(C)CCCNc1c(N)cc2c3c(cccc13)C(=O)N(CCCN(C)C)C2=O	16800 nM
1.5 ×10⁷ /M	CN(C)CCCN1C(=O)c2cccc3c(NCCN(C)C)ccc(c23)C1=O	1700 nM
2.3 ×10⁷ /M	CCN(CC)CCNc1ccc2c3c(cccc13)C(=O)N(CCN(C)C)C2=O	2100 nM
2.3 ×10⁷ /M	CN(C)CCNc1ccc2c3c(cccc13)C(=O)N(CCN(C)C)C2=O	160 nM
1.9 ×10⁷ /M	CCN(CC)CCCNc1ccc2c3c(cccc13)C(=O)N(CCN(C)C)C2=O	890 nM
7 ×10⁷ /M	CN(C)CCCNc1c([N+](=O)[O-])cc2c3c(cccc13)C(=O)N(CCCN(C)C)C2=O	140 nM
1.3 ×10⁷ /M	CN(C)CCCNc1ccc2c3c(cccc13)C(=O)N(CCCN(C)C)C2=O	1400 nM
1.9 ×10⁷ /M	CN(C)CCCNc1ccc2c3c(cccc13)C(=O)N(CCN(C)C)C2=O	930 nM
